The term pKd denotes −log10 of the Kd, conventionally taken in molar units.

pKd: −log10 of the molar value.

Data on 18 compounds can be found in ChEMBL document CHEMBL1133769, “Novel inhibitors of DNA gyrase: 3D structure based biased needle screening, hit validation by biophysical methods, and 3D guided optimization. A promising alternative to random screening” (J Med Chem, 2000).

In one data set the target is DNA gyrase (Staphylococcus aureus) (UniProt P0A0K8+P20831).
DNA gyrase (Staphylococcus aureus), sequence (P0A0K8 2-644 limits assumed): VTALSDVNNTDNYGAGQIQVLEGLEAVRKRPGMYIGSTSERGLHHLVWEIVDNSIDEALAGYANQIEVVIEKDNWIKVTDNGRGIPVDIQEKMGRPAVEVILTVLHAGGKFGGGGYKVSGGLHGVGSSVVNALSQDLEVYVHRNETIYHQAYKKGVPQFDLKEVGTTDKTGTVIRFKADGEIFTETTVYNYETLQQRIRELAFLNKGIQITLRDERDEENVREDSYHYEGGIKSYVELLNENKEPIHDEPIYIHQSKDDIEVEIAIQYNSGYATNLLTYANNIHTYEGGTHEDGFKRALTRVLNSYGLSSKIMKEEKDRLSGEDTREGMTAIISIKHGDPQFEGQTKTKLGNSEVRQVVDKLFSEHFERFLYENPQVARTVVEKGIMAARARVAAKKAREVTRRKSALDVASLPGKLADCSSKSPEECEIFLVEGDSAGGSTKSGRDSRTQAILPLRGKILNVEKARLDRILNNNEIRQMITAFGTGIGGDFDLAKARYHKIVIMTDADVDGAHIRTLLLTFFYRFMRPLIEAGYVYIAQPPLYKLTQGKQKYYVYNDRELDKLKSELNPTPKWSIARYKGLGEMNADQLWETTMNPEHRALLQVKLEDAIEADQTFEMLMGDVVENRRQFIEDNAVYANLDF
DNA gyrase (Staphylococcus aureus), sequence (P20831 whole entry partner): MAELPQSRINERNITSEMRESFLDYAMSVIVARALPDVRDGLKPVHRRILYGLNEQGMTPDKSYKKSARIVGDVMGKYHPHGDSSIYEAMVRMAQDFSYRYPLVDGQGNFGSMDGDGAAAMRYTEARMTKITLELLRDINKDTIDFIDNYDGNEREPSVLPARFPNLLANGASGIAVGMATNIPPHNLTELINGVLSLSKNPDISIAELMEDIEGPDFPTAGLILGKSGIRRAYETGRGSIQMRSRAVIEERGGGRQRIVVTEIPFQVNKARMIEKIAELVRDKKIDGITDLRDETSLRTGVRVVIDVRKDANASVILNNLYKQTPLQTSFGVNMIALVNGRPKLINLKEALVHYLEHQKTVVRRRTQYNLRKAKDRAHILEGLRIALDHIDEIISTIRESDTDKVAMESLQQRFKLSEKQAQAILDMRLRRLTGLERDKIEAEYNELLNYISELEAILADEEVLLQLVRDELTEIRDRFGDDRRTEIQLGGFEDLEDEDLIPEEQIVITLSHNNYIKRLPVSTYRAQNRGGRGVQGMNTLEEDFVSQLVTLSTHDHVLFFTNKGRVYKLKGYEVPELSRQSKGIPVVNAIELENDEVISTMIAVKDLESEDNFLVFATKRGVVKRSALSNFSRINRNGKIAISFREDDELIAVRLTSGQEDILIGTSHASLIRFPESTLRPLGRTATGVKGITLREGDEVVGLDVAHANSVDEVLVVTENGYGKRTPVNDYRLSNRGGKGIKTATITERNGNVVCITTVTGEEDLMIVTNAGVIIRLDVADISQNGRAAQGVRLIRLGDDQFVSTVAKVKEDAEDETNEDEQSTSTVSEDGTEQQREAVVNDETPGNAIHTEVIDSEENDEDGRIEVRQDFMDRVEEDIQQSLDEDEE
Description: Maximal noneffective concentration for inhibition of DNA gyrase using supercoiling assay.
As for `NC(=O)Oc1cc([N+](=O)[O-])ccc1CSCc1ccc(Cl)c(Cl)c1`, the MNEC stood at 31 µg/mL.

For `Nc1ncccn1`, the MNEC was above 250 µg/mL.

Turning to `Cc1cc(=O)oc2cc(SCc3n[nH]c4cccc(OCc5ccc(C(C)(C)C)cc5)c34)ccc12`, the MNEC turned out to be 0.03 µg/mL.

On to `Cc1[nH]c2ncnc(Cl)c2c1C`, for which the MNEC is 31 µg/mL.

Compound `CSc1nc(N)nc(SCCN2CCOCC2)n1` had an MNEC of 31 µg/mL.

`Nc1ccccn1` returned an MNEC above 250 µg/mL.

The compound `Cc1cc(=O)oc2cc(SCc3n[nH]c4cccc(OCc5ccccc5)c34)ccc12` showed an MNEC of 0.25 µg/mL.

As for `Nc1ccncn1`, the MNEC is above 250 µg/mL.

For `OC(CCCCl)c1cc2ccccc2[nH]1` (stereo not given), the MNEC is 16 µg/mL.

Turning to `c1ccc(-c2[nH]nc3ccccc23)cc1`, the MNEC was found to be 8 µg/mL.

As to `O=[N+]([O-])c1ccc2[nH]nc(-c3ccccc3)c2c1`, the MNEC is 63 µg/mL.

Consider `N#Cc1cnc(S)nc1N`, for which the MNEC came out at 16 µg/mL.

As for `Cc1c(O)cc(O)c2c1C(=O)OC[C@H](NC(=O)[C@@H]1[C@H](O)CCN1C(=O)[C@@H](N)CO)C(=O)N[C@H](C(=O)N[C@@H](C)C(=O)O)CSC2`, the MNEC was found to be 0.05 µg/mL.

As to `Cc1csc(NS(=O)(=O)c2ccc(F)cc2F)c1C(N)=O`, the MNEC turned out to be 10 µg/mL.

Consider `Oc1ccc(Cl)cc1CNc1ccc(Cl)cc1`, for which the MNEC worked out at 5 µg/mL.

`Nc1ncncn1` showed an MNEC above 250 µg/mL.

Compound `Cc1cc(=O)oc2cc(SCc3n[nH]c4ccccc34)ccc12` returned an MNEC of 8 µg/mL.

For a further data set, the system named is Nucleic Acid. As to the kind of experiment: Maximal noneffective concentration (MNEC) for inhibition of DNA gyrase. The data set is classed as nucleic-acid assay.
With `c1ccc2[nH]ncc2c1`, the MNEC was above 250 µg/mL.

Tested on in another data set: not listed separately
As to the kind of experiment: Dissociation constant determined by heteronuclear 1H/15N correlation NMR spectroscopy. The data set is classed as physicochemical.
For the compound `Nc1ncccn1`, the pKd was 1.22.

Take `Nc1ncncn1`: the pKd is 1.22.
